The values that follow come from patent US20100048597A1 (Novartis AG, priority 2006, published 2010).

For orientation: IC50 means the point on the concentration scale where inhibition reaches its midpoint.

In test [1] the target is T1, CDK1/cyclinB (Homo sapiens, UniProt P06493).
T1 construct: purchased Millipore
The test is described as follows: CDK1/cyclinB kinase assay, IMAP fluorescence polarization. It counts as biochemical. The procedure, abridged: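 IMAP fluorescence polarization assay on recombinant purified enzyme, compounds at final 1% DMSO. Reaction run 2 h at room temperature, stopped, held 1 h more before reading polarization.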
On the technique in general: Fluorescence polarisation rises when a labelled molecule tumbles more slowly, as on binding a larger partner.

The target in test [2] is T2, CDK2/cyclinA (Homo sapiens, UniProt P24941).
T2 construct: purchased Millipore
Description: CDK2/cyclinA kinase assay, IMAP fluorescence polarization. The test is classed as biochemical. On the procedure: Kinase assays were performed on recombinant purified enzymes using the non-radioactive IMAP fluorescence polarization assay format.
Compound stocks were prepared and diluted in DMSO and were added to kinase reactions at a 1/100 dilution for a final concentration of 1% DMSO. The components were added together to final concentrations listed in the tables below and incubated for two hours at room temperature.
The reactions were stopped by addition of stop solution.
CDK2: final stop concentration is 1× Developer buffer (100% A), IMAP beads 1/400
The samples were allowed to incubate for one more hour at room temperature and then the fluorescence polarization was measured. The plate normalized millipolarization (mP) values were plotted against the log of compound concentration for each compound and IC50 values were calculated using the spotfire IC50 calculator and confirmed by visual analysis.

The test system of test [3] is RNA Polymerase II CTD Serine2 Phosphorylation. Description: H5 (Ser2) Ab High Content Screen: RNA Polymerase II CTD Serine2 Phosphorylation Assay in Hep3B cells. It counts as cell-based. The settings on record: Homo sapiens, 2 hours with compound, H5 antibody staining. Here is the method:
H5 (also referred as Ser2) Ab High Content Screen: RNA Polymerase II CTD Serine2 Phosphorylation Assay
1. Cells are plated into 384 well plates: 30 μl of Hep3B cells (4,000 cells/30 μl) in DMEM with 3% FBS are plated into wells of a tissue culture treated clear bottomed 384 well plate. Cells are allowed to adhere during an overnight incubation.
2. Cells are treated with compounds for two hours: 10 μl of DMEM with 3% FBS is added to each well with a final concentration of DMSO equal to 1%. Cells are incubated with compounds for 2 hours.
3. Cells are fixed and permeabilized. Cells are washed with 30 mM HEPES pH=7.3 then fixed in 4% paraformaldehyde in 30 mM HEPES pH=7.3 for one hour at room temperature. The fix is removed by washing the cells with Tris buffered saline (TBS) and the cells are permeabilized by incubation in TBS with 0.5% triton X-100 for 30 minutes at room temperature. Triton is removed by washing the cells with TBS.
4. […] Incubate primary H5 Ab (1/250 ) overnight at 4 degrees in TBS with 1% BSA and 0.1% Tween-20. The next day wash cells with TBS. […] Wash cells with PBS.
5. Measure staining using the In-cell Analyzer system from GE Healthcare.

In test [4] the target is T3, CDK9/cyclinT1 (Homo sapiens, UniProt P50750).
T3 construct: purchased Millipore
Description: CDK9/cyclinT1 kinase assay, IMAP fluorescence polarization. The test is classed as biochemical. In short, it runs like this:
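Recombinant purified enzyme complexes assayed by IMAP fluorescence polarization with 1% final DMSO, 2 h at room temperature; stopped with 1× Developer buffer (85% A/15% B) plus IMAP beads 1/400, then 1 h further at room temperature. IC50 from normalized mP versus log compound concentration.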

The target of test [5] is CDK5 (Homo sapiens, UniProt Q00535). The test is described as follows: CDK5 kinase assay (Table F). The test is classed as biochemical.
Test [6] has as its target CDK4 (Homo sapiens, UniProt P11802). Description: CDK4 kinase assay (Table F). It counts as biochemical.

Read-outs that look alike come from different tables or passages of the source.

T1 sequence (P06493 whole entry): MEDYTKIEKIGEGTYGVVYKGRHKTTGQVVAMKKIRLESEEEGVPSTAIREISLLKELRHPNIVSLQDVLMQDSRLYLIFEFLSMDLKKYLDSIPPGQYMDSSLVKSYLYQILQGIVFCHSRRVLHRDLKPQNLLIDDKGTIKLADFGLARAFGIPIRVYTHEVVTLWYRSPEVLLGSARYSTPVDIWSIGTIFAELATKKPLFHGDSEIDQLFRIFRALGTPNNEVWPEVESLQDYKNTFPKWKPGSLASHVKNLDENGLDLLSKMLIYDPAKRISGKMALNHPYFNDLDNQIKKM
T1 sequence (P14635 whole entry partner): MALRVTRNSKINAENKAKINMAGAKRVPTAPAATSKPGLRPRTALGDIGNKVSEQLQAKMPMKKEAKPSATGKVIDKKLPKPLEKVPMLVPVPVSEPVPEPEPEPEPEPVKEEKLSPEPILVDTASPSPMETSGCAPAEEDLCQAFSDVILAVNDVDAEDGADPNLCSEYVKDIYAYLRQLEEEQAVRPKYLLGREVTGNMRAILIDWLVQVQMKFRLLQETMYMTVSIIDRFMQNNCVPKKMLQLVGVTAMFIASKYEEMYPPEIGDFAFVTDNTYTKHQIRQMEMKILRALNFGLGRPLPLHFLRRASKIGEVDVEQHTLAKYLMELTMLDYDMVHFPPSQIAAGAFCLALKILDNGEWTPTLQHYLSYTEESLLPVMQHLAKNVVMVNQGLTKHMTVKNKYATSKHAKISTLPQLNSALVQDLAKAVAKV
T3 sequence (P50750 whole entry): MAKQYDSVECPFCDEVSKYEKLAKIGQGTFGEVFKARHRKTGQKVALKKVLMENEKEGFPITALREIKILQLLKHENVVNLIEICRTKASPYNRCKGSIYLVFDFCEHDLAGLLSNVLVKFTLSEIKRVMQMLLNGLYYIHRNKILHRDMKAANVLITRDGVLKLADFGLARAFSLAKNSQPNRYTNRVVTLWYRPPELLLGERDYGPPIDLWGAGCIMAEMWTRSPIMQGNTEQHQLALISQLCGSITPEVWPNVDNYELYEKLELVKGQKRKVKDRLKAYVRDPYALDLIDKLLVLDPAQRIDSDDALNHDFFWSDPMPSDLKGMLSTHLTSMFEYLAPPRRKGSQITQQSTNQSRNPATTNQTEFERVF
T3 sequence (O60563 whole entry partner): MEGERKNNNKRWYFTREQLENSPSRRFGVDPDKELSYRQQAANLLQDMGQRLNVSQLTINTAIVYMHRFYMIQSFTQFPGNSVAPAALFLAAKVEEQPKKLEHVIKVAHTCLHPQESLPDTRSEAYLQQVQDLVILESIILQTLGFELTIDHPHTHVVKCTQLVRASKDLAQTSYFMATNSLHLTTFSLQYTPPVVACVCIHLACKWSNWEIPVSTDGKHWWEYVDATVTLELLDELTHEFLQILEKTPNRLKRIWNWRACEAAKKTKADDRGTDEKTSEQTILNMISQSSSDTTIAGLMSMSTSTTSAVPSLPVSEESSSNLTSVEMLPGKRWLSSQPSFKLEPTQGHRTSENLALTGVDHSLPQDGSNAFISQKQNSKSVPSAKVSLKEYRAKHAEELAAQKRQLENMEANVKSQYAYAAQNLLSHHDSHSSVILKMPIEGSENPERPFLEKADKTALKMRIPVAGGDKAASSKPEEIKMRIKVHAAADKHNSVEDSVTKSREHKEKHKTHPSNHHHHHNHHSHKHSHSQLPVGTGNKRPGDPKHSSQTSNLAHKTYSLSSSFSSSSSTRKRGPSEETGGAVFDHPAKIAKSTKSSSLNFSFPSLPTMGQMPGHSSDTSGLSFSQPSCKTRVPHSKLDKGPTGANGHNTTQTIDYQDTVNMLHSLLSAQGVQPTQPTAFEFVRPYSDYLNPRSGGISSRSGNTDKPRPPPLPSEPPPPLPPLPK
Chain of CDK5 (Q00535 whole entry, species assumed): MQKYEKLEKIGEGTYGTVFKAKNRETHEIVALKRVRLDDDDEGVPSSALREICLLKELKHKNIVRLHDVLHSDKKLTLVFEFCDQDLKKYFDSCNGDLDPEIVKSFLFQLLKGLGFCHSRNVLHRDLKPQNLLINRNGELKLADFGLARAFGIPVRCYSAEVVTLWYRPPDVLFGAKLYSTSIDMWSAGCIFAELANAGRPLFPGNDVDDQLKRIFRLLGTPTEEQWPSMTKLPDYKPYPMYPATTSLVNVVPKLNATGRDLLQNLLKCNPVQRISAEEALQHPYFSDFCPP
Chain of CDK5 (Q15078 whole entry partner, species assumed): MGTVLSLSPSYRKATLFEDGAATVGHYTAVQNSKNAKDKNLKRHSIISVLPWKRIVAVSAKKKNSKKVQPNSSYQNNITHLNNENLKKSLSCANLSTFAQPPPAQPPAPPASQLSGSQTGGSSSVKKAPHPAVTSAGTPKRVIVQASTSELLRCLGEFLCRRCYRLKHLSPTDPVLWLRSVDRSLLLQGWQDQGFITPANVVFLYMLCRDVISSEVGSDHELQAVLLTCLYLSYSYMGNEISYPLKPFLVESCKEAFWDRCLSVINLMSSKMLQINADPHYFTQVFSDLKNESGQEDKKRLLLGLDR
Chain of CDK4 (P11802 whole entry, species assumed): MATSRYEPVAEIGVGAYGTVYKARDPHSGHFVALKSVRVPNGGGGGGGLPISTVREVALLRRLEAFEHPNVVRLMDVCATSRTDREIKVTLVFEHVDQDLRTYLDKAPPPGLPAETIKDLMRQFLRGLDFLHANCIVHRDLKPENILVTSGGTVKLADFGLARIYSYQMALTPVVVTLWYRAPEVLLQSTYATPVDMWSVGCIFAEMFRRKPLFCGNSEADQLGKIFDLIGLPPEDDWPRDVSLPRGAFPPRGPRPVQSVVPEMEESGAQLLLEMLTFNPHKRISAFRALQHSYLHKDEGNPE
Chain of CDK4 (P24385 whole entry partner, species assumed): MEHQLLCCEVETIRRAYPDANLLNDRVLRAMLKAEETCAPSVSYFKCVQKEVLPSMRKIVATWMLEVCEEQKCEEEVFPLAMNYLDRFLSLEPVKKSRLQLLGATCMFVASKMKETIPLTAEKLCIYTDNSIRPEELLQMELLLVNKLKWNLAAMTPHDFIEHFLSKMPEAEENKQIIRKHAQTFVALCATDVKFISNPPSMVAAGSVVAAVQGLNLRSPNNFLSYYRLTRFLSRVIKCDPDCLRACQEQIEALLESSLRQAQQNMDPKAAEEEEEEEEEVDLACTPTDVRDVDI

`Cc1c(-c2ccnc(Nc3cccc(Cl)c3)n2)ccnc1Cl` [Compound 2, [4-(2-Chloro-3-methyl-pyridin-4-yl)-pyrimidin-2-yl]-(3-chloro-phenyl)-amine]: the IC50 in test [1] (read-out: CDK1 IC50) was greater than 50 µM; in test [2], greater than 50 µM; in test [3] it was greater than 50 µM; in test [4] it was less than 5 µM.

As for `Cc1c(-c2ccnc(Nc3cccc(Cl)c3)n2)ccnc1NCc1ccccc1` [Compound 21, [4-(2-Benzylamino-3-methyl-pyridin-4-yl)-pyrimidin-2-yl]-(3-chloro-phenyl)-amine], the half-maximal inhibitory concentration (IC50) is less than 5 µM in test [1] (read-out: CDK1 IC50), less than 5 µM in test [2], 5 to 15 µM in test [3] and less than 5 µM in test [4].

Turning to `Cc1c(-c2ccnc(Nc3cccc(Cl)c3)n2)ccnc1NCCCN1CCOCC1` [Compound 22, (3-Chloro-phenyl)-{4-[3-methyl-2-(3-morpholin-4-yl-propylamino)-pyridin-4-yl]-pyrimidin-2-yl}-amine], the IC50 in test [1] (read-out: CDK1 IC50) is 5 to 15 µM; in test [2], less than 5 µM; in test [3], 5 to 15 µM; in test [4] it was less than 5 µM.

Turning to `Cc1c(-c2ccnc(Nc3cccc(Cl)c3)n2)ccnc1NCCCn1ccnc1` [Compound 23, (3-Chloro-phenyl)-{4-[2-(3-imidazol-1-yl-propylamino)-3-methyl-pyridin-4-yl]-pyrimidin-2-yl}-amine], the IC50 in test [5] was less than 5 µM; in test [1] (read-out: CDK1 IC50) it was 5 to 15 µM; in test [2], less than 5 µM; in test [3], 5 to 15 µM; in test [6], 15 to 50 µM; in test [4] it was less than 5 µM.

Take `Cc1c(-c2ccnc(Nc3cccc(Cl)c3)n2)ccnc1NCCCN1CCCC1=O` [Compound 24, 1-(3-{4-[2-(3-Chloro-phenylamino)-pyrimidin-4-yl]-3-methyl-pyridin-2-ylamino}-propyl)-pyrrolidin-2-one]: the concentration for half-maximal inhibition (IC50) was 5 to 15 µM in test [5]; 5 to 15 µM in test [1] (read-out: CDK1 IC50); less than 5 µM in test [2]; 15 to 50 µM in test [3]; less than 5 µM in test [4].

On to `CC(=O)NCCCNc1cc(-c2ccnc(Nc3cccc(Cl)c3)n2)cc(C)n1` [Compound 42, N-(3-{4-[2-(3-Chloro-phenylamino)-pyrimidin-4-yl]-6-methyl-pyridin-2-ylamino}-propyl)-acetamide], for which the half-inhibitory concentration (IC50) in test [1] (read-out: CDK1 IC50), in test [2], in test [3] and in test [4] was less than 5 µM throughout.

Consider `Clc1cccc(Nc2nccc(-c3ccnc4ccccc34)n2)c1` [Compound 48, (3-Chloro-phenyl)-(4-quinolin-4-yl-pyrimidin-2-yl)-amine], for which the IC50 in test [5] is less than 5 µM; in test [1] (read-out: CDK1 IC50) it was less than 5 µM; in test [3], less than 5 µM; in test [6], 5 to 15 µM; in test [4] it was less than 5 µM.

Turning to `CS(=O)(=O)c1cccc(Nc2nccc(-c3cccnc3NCCCN)n2)c1` [Compound 58, N-{3-[2-(3-Methanesulfonyl-phenylamino)-pyrimidin-4-yl]-pyridin-2-yl}-propane-1,3-diamine], the half-inhibitory concentration (IC50) in test [5], in test [1] (read-out: CDK1 IC50), in test [2], in test [3], in test [6] and in test [4] was less than 5 µM each time.

As for `NCCCNc1ncccc1-c1ccnc(Nc2cccc(S(N)(=O)=O)c2)n1` [Compound 59, 3-{4-[2-(3-Amino-propylamino)-pyridin-3-yl]-pyrimidin-2-ylamino}-benzenesulfonamide], the IC50 was less than 5 µM in test [5]; less than 5 µM in test [1] (read-out: CDK1 IC50); less than 5 µM in test [2]; 15 to 50 µM in test [3]; 5 to 15 µM in test [6]; less than 5 µM in test [4].

For `CC(=O)NCCCNc1ncccc1-c1ccnc(Nc2cccc(Cl)c2)n1` [Compound 65, N-(3-{3-[2-(3-Chloro-phenylamino)-pyrimidin-4-yl]-pyridin-2-ylamino}-propyl)-acetamide], the IC50 in test [5] is less than 5 µM; in test [1] (read-out: CDK1 IC50) it was less than 5 µM; in test [2], less than 5 µM; in test [3], less than 5 µM; in test [6], 15 to 50 µM; in test [4], less than 5 µM.

For the molecule `CS(=O)(=O)NCCCNc1ncccc1-c1ccnc(Nc2cccc(Cl)c2)n1` [Compound 72, N-(3-{3-[2-(3-Chloro-phenylamino)-pyrimidin-4-yl]-pyridin-2-ylamino}-propyl)-methanesulfonamide], the IC50 in test [5] was less than 5 µM; in test [1] (read-out: CDK1 IC50), less than 5 µM; in test [2] it was less than 5 µM; in test [3], less than 5 µM; in test [6] it was 15 to 50 µM; in test [4] it was less than 5 µM.

As to `CC(=O)NCC(C)(C)CNc1ncccc1-c1ccnc(Nc2cccc(Cl)c2)n1` [Compound 73, N-(3-{3-[2-(3-Chloro-phenylamino)-pyrimidin-4-yl]-pyridin-2-ylamino}-2,2-dimethyl-propyl)-acetamide], the IC50 was 5 to 15 µM in test [5]; less than 5 µM in test [1] (read-out: CDK1 IC50); less than 5 µM in test [2]; 5 to 15 µM in test [3]; 15 to 50 µM in test [6]; less than 5 µM in test [4].

In the case of `NCCCCNc1ncccc1-c1ccnc(Nc2cccc(Cl)c2)n1` [Compound 84, N-{3-[2-(3-Chloro-phenylamino)-pyrimidin-4-yl]-pyridin-2-yl}-butane-1,4-diamine], the half-maximal inhibitory concentration (IC50) in test [5], in test [1] (read-out: CDK1 IC50), in test [2], in test [3], in test [6] and in test [4] was less than 5 µM each time.

As to `COc1ncccc1-c1ccnc(Nc2cccc(S(C)(=O)=O)c2)n1` [Compound 93, (3-Methanesulfonyl-phenyl)-[4-(2-methoxy-pyridin-3-yl)-pyrimidin-2-yl]-amine], the IC50 in test [5] was less than 5 µM; in test [1] (read-out: CDK1 IC50), less than 5 µM; in test [2], less than 5 µM; in test [3], less than 5 µM; in test [6], 15 to 50 µM; in test [4], less than 5 µM.

For the molecule `CCCCNS(=O)(=O)c1cccc(Nc2nccc(-c3cccnc3OC)n2)c1` [Compound 102, N-Butyl-3-[4-(2-methoxy-pyridin-3-yl)-pyrimidin-2-ylamino]-benzenesulfonamide], the IC50 in test [1] (read-out: CDK1 IC50) was less than 5 µM; in test [2], less than 5 µM; in test [3], 15 to 50 µM; in test [4], less than 5 µM.

Turning to `COc1ncccc1-c1ccnc(Nc2cccc(-c3cnco3)c2)n1` [Compound 110, [4-(2-Methoxy-pyridin-3-yl)-pyrimidin-2-yl]-(3-oxazol-5-yl-phenyl)-amine], the IC50 in test [1] (read-out: CDK1 IC50), in test [2], in test [3] and in test [4] was less than 5 µM throughout.

On to `COc1ncccc1-c1ccnc(Nc2ccc3cn[nH]c3c2)n1` [Compound 112, (1H-Indazol-6-yl)-[4-(2-methoxy-pyridin-3-yl)-pyrimidin-2-yl]-amine], for which the IC50 in test [1], in test [2], in test [3] and in test [4] was less than 5 µM throughout.

As for `COc1ncccc1-c1ccnc(Nc2ccc(N3CCN(C)CC3)cc2)n1` [Compound 117, [4-(2-Methoxy-pyridin-3-yl)-pyrimidin-2-yl]-[4-(4-methyl-piperazin-1-yl)-phenyl]-amine], the 50% inhibitory concentration (IC50) was less than 5 µM in test [5]; 5 to 15 µM in test [1] (read-out: CDK1 IC50); less than 5 µM in test [2]; less than 5 µM in test [6]; less than 5 µM in test [4].

Turning to `NCCCOc1ncccc1-c1ccnc(Nc2cccc(Cl)c2)n1` [Compound 120, {4-[2-(3-Amino-propoxy)-pyridin-3-yl]-pyrimidin-2-yl}-(3-chloro-phenyl)-amine], the IC50 in test [5] was less than 5 µM; in test [1] (read-out: CDK1 IC50), less than 5 µM; in test [2] it was 15 to 50 µM; in test [6], 15 to 50 µM; in test [4], less than 5 µM.

Regarding `CC(=O)NCCCOc1ncccc1-c1ccnc(Nc2cccc(Cl)c2)n1` [Compound 121, N-(3-{3-[2-(3-Chloro-phenylamino)-pyrimidin-4-yl]-pyridin-2-yloxy}-propyl)-acetamide], the concentration for half-maximal inhibition (IC50) in test [5] is 15 to 50 µM; in test [1] (read-out: CDK1 IC50), 5 to 15 µM; in test [2], 15 to 50 µM; in test [6], 15 to 50 µM; in test [4], less than 5 µM.
